Test results taken from PMC11115308 (Biochemical pharmacology, 2023).

Key:
CXCR4 [1] = molecular target: T1, CXCR4 (Homo sapiens, UniProt P61073); test: β-Arrestin-2 recruitment in Tango CXCR4-bla U2OS cells; type: cell-based; conditions: antagonist at 1 μM
CXCR4 [2] = molecular target: T1, CXCR4; type: cell-based; conditions: log value

T1 sequence (P61073 whole entry): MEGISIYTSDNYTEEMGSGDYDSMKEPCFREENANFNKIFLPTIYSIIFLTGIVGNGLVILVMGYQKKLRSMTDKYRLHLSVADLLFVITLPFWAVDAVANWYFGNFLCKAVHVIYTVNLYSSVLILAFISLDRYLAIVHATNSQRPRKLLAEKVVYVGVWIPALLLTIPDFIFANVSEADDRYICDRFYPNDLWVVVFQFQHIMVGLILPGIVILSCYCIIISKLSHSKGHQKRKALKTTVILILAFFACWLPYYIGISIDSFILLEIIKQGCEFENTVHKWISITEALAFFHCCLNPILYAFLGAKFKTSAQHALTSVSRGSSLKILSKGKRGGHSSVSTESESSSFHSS

| effect on CXCL12 β-arrestin response (CXCR4 [1]) | inhibition of forskolin-stimulated cAMP production log IC50 (CXCR4 [2]) [M] | Compound |
| --- | --- | --- |
| abolishes CXCL12 β-arrestin response | – | c1cc(CN2CCCNCCNCCCNCC2)ccc1CN1CCCNCCNCCCNCC1 [AMD3100] |
| – | −8.9 ± 0.1 | CXCL12: C-X-C Motif Chemokine Ligand 12, chemokine that binds CXCR4; endogenous ligand |
